Drawing on ChEMBL document CHEMBL1143054, “Antimalarial linear lipopeptides from a Panamanian strain of the marine cyanobacterium Lyngbya majuscula” (J Nat Prod, 2007), this text covers IC50 for three compounds.

In experiment [1] the test system is Plasmodium falciparum. Put plainly: Antimalarial activity against chloroquine-resistant Plasmodium falciparum W2 by fluorimetry. Type of experiment: functional, organism-based.
Experiment [2] concerns Vero. The experiment in a line: Cytotoxicity against Vero cells after 4 hrs. In kind it is cell-based. The conditions noted are these: Chlorocebus sabaeus.

Non-standard residues stand in square brackets, D forms with d. Residues, ends and D or L forms follow the SMILES beside them. *: point of attachment. NMeY = CN[C@@H](Cc1ccc(O)cc1)C(=O)O; NMeF = CN[C@@H](Cc1ccccc1)C(=O)O; NMeV = CN[C@H](C(=O)O)C(C)C; X1 = C#CCCCCC(C)CC(C)C(=O)*; X2 = C#CCCCC[C@H](C)C(=O)*; NMeA = CN[C@@H](C)C(=O)O

Usually IC50 stands for the midpoint of a concentration-inhibition curve. Read a low IC50 as greater potency. In the case of `C#CCCCC[C@H](C)C(=O)N(C)[C@@H](Cc1ccccc1)C(=O)N[C@@H](C)C(=O)N(C)[C@@H](C)C(=O)N(C)[C@@H](Cc1ccc(OC)cc1)C(N)=O` [DRAGOMABIN] (X2-[NMeF]A[NMeA][NMeY](Me)-NH2), the IC50 in experiment [1] is 21 µM; in experiment [2], 182 µM.

For `C#CCCCC[C@H](C)C(=O)N(C)[C@H](C(=O)N(C)[C@H](C(=O)N(C)[C@H](C(=O)N(C)[C@@H](Cc1ccccc1)C(N)=O)C(C)C)C(C)C)C(C)C` [DRAGONAMIDE A] (X2-[NMeV][NMeV][NMeV][NMeF]-NH2), the IC50 is 10.7 µM in experiment [1] and 67.8 µM in experiment [2].

In the case of `C#CCCCCC(C)CC(C)C(=O)N(C)[C@@H](Cc1ccccc1)C(=O)N[C@@H](C)C(=O)N(C)[C@@H](C)C(=O)N(C)[C@@H](Cc1ccc(OC)cc1)C(N)=O` (stereo partly specified) [CARMABIN A] (X1-[NMeF]A[NMeA][NMeY](Me)-NH2), the IC50 in experiment [1] turned out to be 1.4 µM; in experiment [2], 9.8 µM.
